From US20050227982A1, “Antileishmanial dinitroaniline sulfanomides with activity against parasite tubulin” (priority 2002, published 2005)
“And” between values parts separate entries of the source, which are not always exact repeats. Equal entries are not always repeated. Where two headings read alike, the source gives them in different places.

Assays:
leishmanial tubulin [1] = conditions: reference 8; cited from earlier work
[2] = test system: L. donovani promastigotes; assay: Growth inhibition of L. donovani promastigotes; type: cell-based, Leishmania donovani; conditions: for IC50: read-out: IC50 vs. L. donovani promastigotes
P. falciparum D6 strain = assay: In vitro sensitivity of P. falciparum D6 strain (tritiated hypoxanthine uptake); type: cell-based, Plasmodium falciparum
Procedure: (§1) Determination of the drug susceptibility of parasites and mammalian cells. The susceptibility of Leishmania donovani amastigote-like parasites (WHO designation: MHOM/SD/62/1S-CL2D) to growth inhibition by compounds of interest was measured in a three-day assay using the tetrazolium dye-based CellTiter reagent (Promega) (Werbovetz, K., Brendle, J., and Sackett, D. (1999) Mol. Biochem. Parasitol. 98, 53-65., and Havens, C., Bryant, N., Asher, L., Lamoreaux, L., Perfetto, S., Brendle, J., and Werbovetz, K. (2000) Mol. Biochem. Parasitol. 110, 223-236). The amastigote medium used in this assay is based on the medium mentioned by Joshi et al. (Joshi, M., Dwyer, D. M., and Nakhasi, H. L. (1993) Mol. Biochem. Parasitol. 58, 345-354). Prior to addition of fetal bovine serum to a final concentration of 20%, this amastigote medium contains 15 mM KCl, 115 mM KH2PO4, 10 mM K2HPO4, 0.5 mM MgSO4, 24 mM NaHCO3, a 1-concentration of RPMI-1640 vitamins and amino acids, 2.0 mM L-glutamine, 22 mM D-glucose, 100 units/mL penicillin, 100 ∝g/ml streptomycin, 0.1 mM adenosine, 1 ∝g/mL folate, and 25 mM MES (pH 5.5). Compounds were tested for their activity against bloodstream-form Trypanosoma brucei brucei (MITat 1.2, variant 221) axenically-cultured in HMI-9 medium , H., and Hirumi, K. (1989) J. Parasitol. 75, 985-989.) following the procedure of Ellis et al. (Ellis, J., Fish, W., Sileghem, M., and McOdimba, F. (1993) Vet. Parasitol. 50, 143-149.) with some modifications. Briefly, 100 μL of late log phase parasites were incubated in 96-well plates (Costar) at an initial concentration of 10^5 cells/ml with or without test compounds at 37° C. in a humidified 5% CO2 atmosphere for 72 hours. Twenty-five μL of a 5 mg/mL solution of MTT (prepared in phosphate buffered saline and filter sterilized) was then added to each well and plates were re-incubated at 37° C. as before for 2 h. One hundred ∝L of 20% SDS lysis buffer (prepared in 50% aqueous DMF) was added to each well and plates were incubated as before for an additional 3-4 h. Optical densities were then measured at 570 nm using SpectraMax Plus microplate reader. […] Assessment of the in vitro sensitivity of T. b. brucei Lab 110 EATRO and P. falciparum strains to compounds was performed by methods described in Donkor et al. (Donkor, I., Assefa, H., Rattendi, D., Lane, S., Vargas, M., Goldberg, B., and Bacchi, C. (2001) Eur. J. Med. Chem. 36, 531-538.) and Guan et al. (Guan, J., Kyle, D., Gerena, L., Zhang, Q., Milhous, W., and Lin, A. (2002) J. Med. Chem. 45, 2741-2748).

[3] = test system: L. donovani axenic amastigotes; assay: Growth inhibition of L. donovani axenic amastigotes (three-day tetrazolium dye assay); type: cell-based, Leishmania donovani
Procedure: (§2) 2000, 110, 223-236, incorporated herein by reference.^14
as §1

PC3 cells = assay: Toxicity to PC3 cells (three-day CellTiter assay); type: cell-based; conditions: read-out: IC50, PC3 prostate
Procedure: (§3) The toxicity of compounds to J774 murine macrophages and PC3 […] cells was measured in a three-day assay using the CellTiter reagent. […] Macrophages were allowed to adhere for 24 hours, then the medium was removed and replaced with serial dilutions of the test compounds in the DMEM medium mentioned above without phenol red. After 72 hr incubation with the test compounds at 37° C. in a humidified 5% CO2 incubator, cell viability was determined using the CellTiter reagent by adding 20 μL of assay solution to each well. After a 6-7 h incubation at 37° C. to allow for color development, the absorbance of each well at 490 nm was measured in a SpectraMax Pro microplate reader (Molecular Devices). The toxicity of compounds to PC3 cells was assessed in the same manner as for the macrophages, except that the medium used was RPMI 1640 supplemented with 10% heat inactivated fetal calf serum, 2.0 mM L-glutamine, 50 units/mL penicillin, and 50 ∝g/mL streptomycin. IC50 values for the J774 and PC3 assays were determined with the software program SoftMax Pro as described earlier.

[4] = test system: T. b. brucei Lab 110 EATRO; assay: In vitro sensitivity of T. b. brucei Lab 110 EATRO (Coulter counter, two-day); type: cell-based, Trypanosoma brucei brucei; conditions: read-out: IC50, T. b. brucei Lab 110 EATRO
Procedure: as §1

leishmanial tubulin [5] = type: biochemical; conditions: mean ± SD of at least one duplicate measurement, SD of controls 27.6%
Procedure: as §2
Briefly, the tubulin assembly assays are performed as follows. […] The change in turbidity was measured at 351 nm using the SpectraMax Plus microplate reader immediately after GTP addition at 30° C. (for leishmanial tubulin) or 37° C. (for brain tubulin).

[6] = test system: Trypanosoma brucei brucei (MITat 1.2, variant 221); assay: microbe, parasite or virus in culture; type: cell-based; conditions: read-out: IC50, T. b. brucei variant 221
Procedure: as §1

J774 murine macrophages = assay: Toxicity to J774 macrophages (three-day CellTiter assay); type: cell-based
Procedure: as §3

P. falciparum W2 strain = assay: microbe, parasite or virus in culture; type: cell-based, Plasmodium falciparum
Procedure: as §1

[7] = test system: L. donovani promastigotes; assay: Flow cytometry of DNA content in L. donovani promastigotes; type: cell-based, Leishmania donovani; conditions: 10 μM compound; for effect on cell cycle / DNA content by flow cytometry: 48 hour treatment of promastigotes
Procedure: Flow cytometry and fluorescence cell sorting. Parasites or J774 macrophages were incubated in T25 flasks (3-5 mL final volume) in the appropriate media described earlier for 24-48 h. Cultures contained 1% DMSO (v/v) in the presence or absence of test compounds. Cells were counted using a hemacytometer, then were centrifuged (1000×·g for parasites, 200×·g for macrophages) at 4° C. for 10 min (parasites) or 5 min (macrophages). Cells were resuspended in 150 μL of PBS (0.01 M phosphate, 0.137 M NaCl, and 2.7 mM KCl), then 350 μL of ice-cold methanol was added and the samples were fixed at −20° C. for 2-3 h. Cells were centrifuged as before and resuspended in PBS containing 0.1% TX-100, 5 μg/mL RNase A, and 10 μg/mL propidium iodide for 20-30 min. Centrifugation was repeated, then cells were resuspended in PBS to a final concentration of 5×10^5-10^6/mL and stored at 4° C. until analysis. Fluorescence cell sorting was conducted on a Beckman Coulter Elite flow cytometer.

[8] = literature reference 4; cited from earlier work
[9] = Plasmodium falciparum, D6, read-out: IC50, P. falciparum D6 strain
[10] = Leishmania donovani, 72 h, Table 4, three-day tetrazolium dye assay, mean ± SD, read-out: IC50, L. donovani axenic amastigotes
[11] = Leishmania donovani, Table 1, mean ± standard deviation of at least two independent measurements, read-out: IC50 vs. L. donovani amastigotes
[12] = Trypanosoma brucei, 72 h, Table 4, three-day tetrazolium dye assay
[13] = Mus musculus, J774, Table 4, mean ± SD of at least two independent experiments, read-out: IC50, J774 macrophages
[14] = Plasmodium falciparum, W2, read-out: IC50, P. falciparum W2 strain
[15] = read-out: IC50, J774 macrophages

Compound | IC50 ([2]; Leishmania donovani) [µM] | IC50 (P. falciparum D6 strain; [9]) [µM] | IC50 [3, 10] [µM] | IC50 [3, 11] [µM] | IC50 (PC3 cells; Homo sapiens, PC-3, 72 h) [µM] | IC50 ([4]; Trypanosoma brucei, 48 h) [µM] | % Inhibition of Leishmanial Tubulin Assembly at 20 μM Compound (leishmanial tubulin [5]) [%] | IC50 [6, 12] [µM] | IC50 (J774 murine macrophages; [13]) [µM] | IC50 (P. falciparum W2 strain; [14]) [µM] | effect on cell cycle / DNA content by flow cytometry [7] | IC50 (J774 murine macrophages; [15]) [µM] | other results
O=[N+]([O-])c1cc(C(F)(F)F)cc([N+](=O)[O-])c1Cl [Chloralin, chloralin] | – | – | – | – | – | – | – | – | – | – | – | – | inhibition of leishmanial tubulin polymerization (in words, earlier publication) (leishmanial tubulin [1]): inhibitor of leishmanial tubulin polymerization
CCCCCCN(CCCCCC)c1c([N+](=O)[O-])cc(S(N)(=O)=O)cc1[N+](=O)[O-] [Compound 17] | 12.2 | 10 | 11.7 ± 0.7 | 11.7 ± 0.7 | 11.2 ± 1.3 | 5.6 | 48 ± 19 | 9.48 ± 1.73 | 1.91 ± 0.36 | 12 | – | – | –
CCCCN(CCCC)c1c([N+](=O)[O-])cc(S(N)(=O)=O)cc1[N+](=O)[O-] [Compound 15, 4(dibutylamino)-3,5-dinitrobenzenesulfonamide] | 17.8 ± 2.6 | 5.1 | 20.1 ± 0.2 | 20.1 ± 0.2 | 17.2 ± 2.8 | 1.8 | 89 ± 3 | 2.57 ± 0.7 | 8.43 ± 0.69 | 4.3 | accumulate in the G2M phase of the cell cycle | – | IC50 ([3]; Leishmania donovani, 72 h, unit inferred, three-day tetrazolium dye assay, read-out: IC50, L. donovani axenic amastigotes): 20.1 ± 0.2 µM; IC50 ([6]; Trypanosoma brucei, unit inferred): 2.57 ± 0.7 µM; IC50 (J774 murine macrophages; Mus musculus, J774, table after b111, unit inferred, read-out: IC50, J774 macrophages): 8.43 ± 0.69 µM
CCCNS(=O)(=O)c1cc([N+](=O)[O-])c(N(CCC)CCC)c([N+](=O)[O-])c1 [Compound 21, N1-Propyl-3,5-dinitro-N4,N4-di-n-propylsulfonilamide] | – | – | – | – | – | – | 97 ± 1 | – | – | – | – | 21.8 ± 2.1 | IC50 ([2]; mean ± standard deviation of at least two independent measurements): 56 ± 2.3 µM; IC50 (P. falciparum D6 strain; tritiated hypoxanthine uptake, read-out: IC50, P. falciparum D6 strain): 13 µM; IC50 ([3]; read-out: IC50, L. donovani axenic amastigotes): 54.3 µM and 56.9 µM; IC50 ([3]; read-out: IC50 vs. L. donovani amastigotes): 56.9 ± 3.4 µM; IC50 (PC3 cells; three-day tetrazolium dye assay, mean ± SD): 40.5 ± 8.6 µM; IC50 ([4]; Coulter counter after two-day incubation): 3 µM; IC50 [6]: 9.2 µM and 8.06 µM; IC50 (P. falciparum W2 strain; tritiated hypoxanthine uptake, read-out: IC50, P. falciparum W2 strain): > 25 µM
CCCN(CCC)c1c([N+](=O)[O-])cc(C(F)(F)F)cc1[N+](=O)[O-] [Trifluralin, trifluralin] | – | – | – | – | – | – | – | – | – | – | – | – | aqueous solubility (in words) [8]: low solubility
CCCN(CCC)c1c([N+](=O)[O-])cc(S(=O)(=O)Nc2ccccc2)cc1[N+](=O)[O-] [Compound 20, N1-Phenyl-3,5-dinitro-N4,N4-di-n-propylsulfonilamide] | 14.7 ± 1 | 11 | – | – | 41.3 ± 8.5 | 0.58 | 108 ± 7 | – | – | 13 | appearance of parasites containing approximately 4×, 8×, and 16× more DNA | 30.8 ± 1.9 | fold more active than 3 against promastigotes ([2]; relative to oryzalin 3): 3.0 fold; fold more active than 3 against L. donovani axenic amastigotes [3]: 13.4 fold; IC50 ([3]; Leishmania donovani, 72 h, read-out: IC50, L. donovani axenic amastigotes): 5.03 ± 1.08 µM; IC50 ([3]; Leishmania donovani, read-out: IC50 vs. L. donovani amastigotes): 5.41 ± 0.89 µM; parasite cell density over 48 hours ([7]; control cultures doubled approximately three times): remained at the same cell density; IC50 ([6]; Trypanosoma brucei, 72 h): 0.412 ± 0.044 µM; IC50 ([6]; Trypanosoma brucei): 0.4 µM; IC50 (J774 murine macrophages; Mus musculus, J774, read-out: IC50, J774 macrophages): 28.3 ± 3.8 µM; melting point: 120 °C
